# Test results reported in patent US11220486B2 (La Jolla Institute of Allergy & Immunology, priority 2014, dated 2022).
# Where two headings read alike, the source gives them in different places.
# Key:
# [1] = Aqueous solubility in buffer pH 5.0-7.4 and PBS; type: physicochemical
# [2] = Liver function: serum alanine transaminase or aspartate transaminase of treated mice; type: in vivo; conditions: mice treated 30 mg/kg daily IP
# Protocol: Serum alanine transaminase or aspartate transaminase levels from mice treated with Compound D1 (ML400) or vehicle (mice shown in FIG. 10) were assessed using EnzyChrom Assay Kits from BioAssay Systems.
# [3] = Rodent pharmacokinetics (IV, PO, IP); type: in vivo, Male C57BL/6 Mice; conditions: mouse
# Protocol: The inventors also examined ML400 (also described herein as MLS-0472870 or Compound D1) for its rodent pharmacokinetics. The probe Compound D1 was profiled in Male C57BL/6 Mice, with n=3 for each group studied (IV, IP and PO arms). The formulation used was 1.00 mg/mL in DMSO:Tween80:Water=5:5:90, which gave a clear solution. […] Enterohepatic circulation was also observed for this compound. This compound has acceptable parameters for future in vivo studies (see Table 4 and FIG. 13).
# 3T3-L1 pre-adipocytes = test: Insulin-based 3T3-L1 adipogenesis assay (AdipoRed); type: cell-based, mouse; conditions: 10 μM
# Protocol: The probe Compound D1 was also profiled in an insulin-based mouse 3T3-L1 adipogenesis assay. In this assay, 3T3-L1 pre-adipocytes are grown to 2-days post-confluence in DMEM with 10% bovine calf serum, and then induced to differentiate to adipocytes following stimulation for 2 days with an induction cocktail containing […] insulin, 1 μM dexamethasone, and 0.5 mM 3-isobutyl-1-methylxanthine in DMEM containing 10% fetal bovine serum (FBS).^44 2 days later, the media is replaced with DMEM with 10% FBS and 1 μg/ml insulin, and after 2 additional days, the media is replaced with DMEM with 10% FBS for 2 additional days, at which point adipogenesis is measured using the AdipoRed Adipogenesis Assay Reagent from Lonza, according to the manufacturer's instructions. In brief, the assay reagent is added to the wells containing cells, where it partitions into the fat droplets of differentiated adipocytes, and emits fluorescence at 572 nm that can be detected with a plate-reader. To test the effect of probe Compound D1, cells were plated into 48-well plates and allowed to grow to confluence. Cells were then treated with 10 μM Compound D1 or 0.025% DMSO, and after 2 days induced to differentiate in the presence of 10 μM Compound D1 or 0.025% DMSO. Fresh compound or DMSO was added during each media replacement.
# [4] = system: obese mice (glucose tolerance); test: IPGTT in high-fat-diet obese mice; type: in vivo, Male C57BL/6 mice; conditions: 30 mg/kg daily IP, 4 weeks, HFD obese mice, 2 g glucose/kg
# Protocol: Male C57BL/6 mice were maintained on HFD containing 60 kcal % fat for 3 months, followed by daily IP administration of 30 mg/kg Compound D1 or vehicle. After 4 weeks, IPGTT were performed using 2 g glucose/kg body weight. Mean±SEM is shown. *, p<0.05, Two-way ANOVA.
# [5] = Kidney function: serum creatinine of treated mice; type: in vivo; conditions: mice treated 30 mg/kg daily IP
# Protocol: Serum creatinine levels from mice treated with Compound D1 (ML400) or vehicle (mice shown in FIG. 9) were assessed using the QuantiChrom Creatinine Assay Kit from BioAssay Systems.
# [6] = molecular target: LMPTP-A (Low Molecular Weight Protein Tyrosine Phosphatase-A) enzyme (Homo sapiens (Human), UniProt P24666); test: LMPTP primary screening / LMPTP (OMFP) enzyme inhibition assay, fluorescence intensity; type: biochemical
# Sequence of LMPTP-A (Low Molecular Weight Protein Tyrosine Phosphatase-A) enzyme (P24666 whole entry): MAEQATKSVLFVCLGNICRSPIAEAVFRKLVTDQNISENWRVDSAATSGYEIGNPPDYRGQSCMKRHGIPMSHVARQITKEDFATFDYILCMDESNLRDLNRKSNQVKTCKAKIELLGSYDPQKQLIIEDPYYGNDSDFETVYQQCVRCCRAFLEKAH
# Protocol: This assay attempts to identify inhibitors of the LMPTP-A (Low Molecular Weight Protein Tyrosine Phosphatase-A) enzyme. It is run in 1536-well format and is measured via fluorescence intensity.
# A listing of materials is provided: • Item, source, catalog no. • LMPTP-A Enzyme Stock Solution (4.22 mg/ml or 206.8 μM), SBMRI Protein Facility, • N/A • OMFP, Sigma, M2629-100 MG • Bis-Tris pH 6.0, Fisher Sci, BP301-100 • Triton-X 100, Sigma, T9284 • DTT, Sigma, D9779 • Mol. Grade Water, Mediatech, Inc., 46-000-CM • 1536-well black High base opaque bottom plate, Nexus Biosystems, 00019120
# Assay Procedure • 1. Prepare Reagents as described in section F. Recipe. • 2. Using LabCyte Echo, transfer 60 nL from 2 mM test compound source plate into assay plate Col. 5-48 (final concentration of test compounds is 20 μM). 60 nL of DMSO should be transferred to col. 1-4 for positive and negative control wells. • 3. Spin plates at 1000 rpm for 1 minute in centrifuge. • 4. […] Using the Bioraptr, add 3 μL/well of enzyme solution to col. 3-48. • 6. Using the Bioraptr, add 3 μL/well of substrate solution to col. 1-48. • 7. Spin plates at 1000 rpm for 1 minute in centrifuge. • 8. Incubate plates in the dark at room temperature for 50 minutes. • 9. Read plates on PerkinElmer Viewlux using a FI protocol.
# [7] = system: insulin receptor in human HepG2 hepatocytes; conditions: HepG2 cells, 10 microM overnight, 1.76 microM insulin 5 min
# [8] = Hepatic microsomal stability, mouse; type: in vitro ADME
# From the text: The microsomal stability assay is commonly used to rank compounds according to their metabolic stability. This assay addresses the pharmacologic question of how long the parent compound will remain circulating in plasma within the body.
smiles,measurement,setting,value
"COc1ccc(-c2cc(NCCCN3CCCCC3)c3ccccc3n2)cc1 [Compound D1, 2-(4-methoxyphenyl)-N-(3-(piperidin-1-yl)propyl)quinolin-4-amine]",solubility in PBS,"[1]; PBS, compared with aqueous buffer",comparable
same,concentration achieved in aqueous buffer relative to IC50,[1]; pH range of 5.0-7.4,18-20 ×IC50
same,liver function (serum alanine transaminase or aspartate transaminase),[2],does not Affect Liver Function
same,Enterohepatic circulation,[3],observed
same,3T3-L1 adipogenesis,3T3-L1 pre-adipocytes,completely abolished
same,glucose tolerance (IPGTT),[4],Improves Glucose Tolerance
same,kidney function (serum creatinine),[5],does not Affect Kidney Function
"CN(C)Cc1cccc(Nc2cc(-c3ccc(Cl)cc3F)nc3ccccc23)c1 [Compound I9, [(3-{[2-(4-chloro-2-fluorophenyl)(4-quinolyl)]amino}phenyl)methyl]dimethylamine]",IC50,[6]; read-out: IC50,801 to 5000 nM
CNC(=O)c1ccc(-c2cc(NCCCN3CCCCC3)c3ccccc3n2)cc1F [Compound I228],IC50,[6]; read-out: IC50,801 to 5000 nM
CCN(CC)CCNC(=O)c1ccc(-c2cc(NCCCN3CCCCC3)c3ccccc3n2)cc1 [Compound I254],IC50,[6]; read-out: IC50,200 to 800 nM
c1ccc(-c2cc(NCCN3CCCCC3)c3ccccc3n2)cc1 [Entry 41],phosphorylation of the insulin receptor,[7],increases phosphorylation of the insulin receptor
same,Hepatic Microsome Stability % Remaining @ 1 hr,[8],0.38%
CSCCCN1CCCCC1 [Entry 64],IC50,"[6]; S sample: compound synthesized de novo by SBCCG, read-out: LMPTP (OMFP) (IC50)",66900 nM
